According to PubChem BioAssay (NCI):
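48-hour exposure; five concentrations; linearly interpolated endpoints. GI50 is the concentration that inhibits growth by half. TGI: total growth inhibition.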

Key:
Experiment in all cases: NCI tumour cell line growth inhibition, 48 h
[1] = tested on: SF-268 CNS
[2] = tested on: NCI-H460 lung
[3] = tested on: OVCAR-4 ovarian
[4] = tested on: UACC-62 melanoma
[5] = tested on: HT29 colon
[6] = tested on: MDA-MB-231 breast
[7] = tested on: EKVX NSCLC
[8] = tested on: MALME-3M melanoma
[9] = tested on: M14 melanoma
[10] = tested on: SW-620 colon
[11] = tested on: KM12 colon
[12] = tested on: T-47D breast
[13] = tested on: ACHN renal
[14] = tested on: SK-OV-3 ovarian
[15] = tested on: SK-MEL-5 melanoma
[16] = tested on: RXF 393 renal
[17] = tested on: CAKI-1 renal
[18] = tested on: LOX IMVI melanoma
[19] = tested on: UO-31 renal
[20] = tested on: HCC-2998 colon
[21] = tested on: PC-3 prostate
[22] = tested on: DU-145 prostate
[23] = tested on: UACC-257 melanoma
[24] = tested on: SF-539 CNS
[25] = tested on: HCT-116 colon
[26] = tested on: U251 CNS
[27] = tested on: SK-MEL-2 melanoma
[28] = tested on: HCT-15 colon
[29] = tested on: SNB-19 CNS
[30] = tested on: A549 NSCLC
[31] = tested on: SN12C renal
[32] = tested on: COLO 205 colon
[33] = tested on: MCF7 breast
[34] = tested on: 786-0 renal
[35] = tested on: A498 renal
[36] = tested on: MDA-MB-435
[37] = tested on: HOP-92 NSCLC
[38] = tested on: NCI-H522 lung
[39] = tested on: NCI-H226 lung
[40] = tested on: K-562 leukemia
[41] = tested on: NCI/ADR-RES ovarian
[42] = tested on: SF-295 CNS
[43] = tested on: HS 578T breast
[44] = tested on: OVCAR-3 ovarian
[45] = tested on: MDA-N
[46] = tested on: SNB-75 CNS
[47] = tested on: OVCAR-5 ovarian
[48] = tested on: TK-10 renal
[49] = tested on: SK-MEL-28 melanoma
[50] = tested on: MOLT-4 leukemia
[51] = tested on: HOP-62 NSCLC
[52] = tested on: IGROV1 ovarian
[53] = tested on: BT-549 breast
[54] = tested on: HL-60(TB) leukemia
[55] = tested on: NCI-H23 lung
[56] = tested on: RPMI-8226 leukemia
[57] = tested on: OVCAR-8 ovarian
[58] = tested on: CCRF-CEM leukemia
[59] = tested on: SR leukemia

## CC(=N/NC(=S)N(C)C)/C(=N\NC(=S)N(C)C)c1ccccc1
[1]
  TGI: 4.84 µM
[2]
  TGI: 3.91 µM
[3]
  TGI: 3.74 µM
[4]
  TGI: 4.44 µM
[5]
  TGI: 9.46 µM
[6]
  TGI: > 23.8 µM
[7]
  TGI: 3.56 µM
[8]
  TGI: 3.5 µM
[9]
  TGI: 4.14 µM
[10]
  TGI: 3.97 µM
[11]
  TGI: 4.44 µM
[12]
  TGI: 3.54 µM
[13]
  TGI: 3.26 µM
[14]
  TGI: 3.53 µM
[15]
  TGI: 3.14 µM
[16]
  TGI: 2.95 µM
[17]
  TGI: 6.96 µM
[18]
  TGI: > 100 µM
[19]
  TGI: 6.21 µM
[20]
  TGI: 2.99 µM
[21]
  TGI: 4.64 µM
[22]
  TGI: 10.6 µM
[23]
  TGI: 4.19 µM
[24]
  TGI: 25.8 µM
[25]
  TGI: 9.77 µM
[26]
  TGI: 7.96 µM
[27]
  TGI: 4.69 µM
[28]
  TGI: 4.36 µM
[29]
  TGI: 6.85 µM
[30]
  TGI: 8.56 µM
[31]
  TGI: 3.24 µM
[32]
  TGI: 3.33 µM
[33]
  TGI: > 25.6 µM
[34]
  TGI: 4.04 µM
[35]
  TGI: 3.12 µM
[36]
  TGI: 3.56 µM
[37]
  TGI: 3.53 µM
[38]
  TGI: 3.78 µM
[39]
  TGI: 3.13 µM
[40]
  TGI: > 100 µM
[41]
  TGI: 4.99 µM
[42]
  TGI: 4.46 µM
[43]
  TGI: 6.26 µM
[44]
  TGI: 3.68 µM
[45]
  TGI: 8.58 µM
[46]
  TGI: 4.62 µM
[47]
  TGI: 5.03 µM
[48]
  TGI: 3 µM
[49]
  TGI: 4.03 µM
[50]
  TGI: > 100 µM
[51]
  TGI: 5.33 µM
[52]
  TGI: 3.36 µM
[53]
  TGI: 4.63 µM

## CCOC(=O)c1c(-c2ccccc2)c(OC)cn1C
[1]
  TGI: > 10 µM
[2]
  TGI: > 10 µM
[3]
  TGI: > 10 µM
[4]
  TGI: > 10 µM
[5]
  TGI: > 10 µM
[6]
  TGI: > 10 µM
[7]
  TGI: > 10 µM
[8]
  TGI: > 10 µM
[9]
  TGI: > 10 µM
[10]
  TGI: > 10 µM
[11]
  TGI: > 10 µM
[12]
  TGI: > 10 µM
[13]
  TGI: > 10 µM
[54]
  TGI: > 10 µM
[14]
  TGI: > 10 µM
[55]
  TGI: > 10 µM
[15]
  TGI: > 10 µM
[16]
  TGI: > 10 µM
[17]
  TGI: > 10 µM
[18]
  TGI: > 10 µM
[20]
  TGI: > 10 µM
[21]
  TGI: > 10 µM
[22]
  TGI: > 10 µM
[23]
  TGI: > 10 µM
[24]
  TGI: > 10 µM
[25]
  TGI: > 10 µM
[56]
  TGI: > 10 µM
[57]
  TGI: > 10 µM
[26]
  TGI: > 10 µM
[27]
  TGI: > 10 µM
[28]
  TGI: > 10 µM
[29]
  TGI: > 10 µM
[30]
  TGI: > 10 µM
[31]
  TGI: > 10 µM
[32]
  TGI: > 10 µM
[33]
  TGI: > 10 µM
[34]
  TGI: > 10 µM
[35]
  TGI: > 10 µM
[36]
  TGI: > 10 µM
[38]
  TGI: > 10 µM
[39]
  TGI: > 10 µM
[40]
  TGI: > 10 µM
[41]
  TGI: > 10 µM
[42]
  TGI: > 10 µM
[43]
  TGI: > 10 µM
[44]
  TGI: > 10 µM
[45]
  TGI: > 10 µM
[46]
  TGI: > 10 µM
[47]
  TGI: > 10 µM
[48]
  TGI: > 10 µM
[58]
  TGI: > 10 µM
[49]
  TGI: > 10 µM
[50]
  TGI: > 10 µM
[51]
  TGI: > 10 µM
[52]
  TGI: > 10 µM
[53]
  TGI: > 10 µM

## O=C(Nc1cccc(C(F)(F)F)c1)Oc1ccc(Cl)c2cccnc12
[1]
  GI50: 1.36 µM
  TGI: 16.6 µM
[2]
  GI50: 1.01 µM
  TGI: 5.08 µM
[3]
  GI50: 0.831 µM
  TGI: 14.8 µM
[4]
  GI50: 1.15 µM
  TGI: 3.57 µM
[5]
  GI50: 3.9 µM
  TGI: 14.1 µM
[6]
  GI50: 2.11 µM
  TGI: 6.15 µM
[7]
  GI50: 1.83 µM
  TGI: 6.88 µM
[8]
  GI50: 1.18 µM
  TGI: 3.96 µM
[9]
  GI50: 1.49 µM
  TGI: 7.83 µM
[10]
  GI50: 1.49 µM
  TGI: 12.9 µM
[11]
  GI50: 3.94 µM
  TGI: 13.4 µM
[12]
  GI50: 1.8 µM
  TGI: > 28.2 µM
[13]
  GI50: 1.23 µM
  TGI: 5.43 µM
[54]
  GI50: 0.776 µM
[14]
  GI50: 6.64 µM
  TGI: 29.3 µM
[55]
  GI50: 1.48 µM
  TGI: 11.7 µM
[15]
  GI50: 1.31 µM
  TGI: 2.88 µM
[16]
  GI50: 1.2 µM
  TGI: 5.49 µM
[17]
  GI50: 2.03 µM
  TGI: 4.79 µM
[18]
  GI50: 0.764 µM
  TGI: 4.02 µM
[19]
  GI50: 1.06 µM
  TGI: 5.39 µM
[20]
  GI50: 3.51 µM
  TGI: 12.8 µM
[21]
  GI50: 0.607 µM
  TGI: 14.2 µM
[22]
  GI50: 2.38 µM
  TGI: 15.8 µM
[23]
  GI50: 1.32 µM
  TGI: 3.24 µM
[24]
  GI50: 1.85 µM
  TGI: 7.92 µM
[25]
  GI50: 0.615 µM
  TGI: 8.03 µM
[56]
  GI50: 0.561 µM
  TGI: 4.22 µM
[57]
  GI50: 0.906 µM
  TGI: 6.16 µM
[26]
  GI50: 0.861 µM
  TGI: 8.57 µM
[27]
  GI50: 2.07 µM
  TGI: 5.55 µM
[28]
  GI50: 0.584 µM
  TGI: 9.19 µM
[29]
  GI50: 2.52 µM
  TGI: > 32.8 µM
[30]
  GI50: 2.43 µM
  TGI: 9.03 µM
[31]
  GI50: 1.85 µM
  TGI: 7.89 µM
[32]
  GI50: 2.48 µM
  TGI: 6.39 µM
[33]
  GI50: 1.46 µM
  TGI: 6.77 µM
[34]
  GI50: 5.09 µM
  TGI: 15.4 µM
[35]
  GI50: 3.82 µM
  TGI: 12.4 µM
[36]
  GI50: 1.89 µM
  TGI: 9.5 µM
[37]
  GI50: 0.462 µM
  TGI: 4.02 µM
[38]
  GI50: 0.906 µM
  TGI: 4.28 µM
[39]
  GI50: 2.25 µM
  TGI: 5.75 µM
[40]
  GI50: 1.02 µM
  TGI: > 100 µM
[41]
  GI50: 1.23 µM
  TGI: 16.8 µM
[42]
  GI50: 0.976 µM
  TGI: 6.93 µM
[43]
  GI50: 3.56 µM
  TGI: > 24 µM
[59]
  GI50: 0.447 µM
[44]
  GI50: 0.832 µM
  TGI: 6.93 µM
[46]
  GI50: 2.59 µM
  TGI: 17.8 µM
[47]
  GI50: 3.6 µM
  TGI: 18 µM
[48]
  GI50: 4.1 µM
  TGI: 21.4 µM
[58]
  GI50: 0.708 µM
  TGI: 16.1 µM
[49]
  GI50: 4.29 µM
  TGI: 17.8 µM
[50]
  GI50: 0.86 µM
  TGI: 22.8 µM
[51]
  GI50: 2.99 µM
  TGI: 11 µM
[52]
  GI50: 1.22 µM
  TGI: 4.43 µM
[53]
  GI50: 0.524 µM
  TGI: 3.69 µM
